{"source": "the supplement of paper PMC11208160", "data": [{"assay": "recombinant barcode read abundance after kanamycin selection (control-corrected) (log10(CPM+1)); higher = more efficient recombination; sequences stand for … in AGTGCAGAGAAAATCGGCCAGTTTTCTCTGCCTGCAGTCCGCATGCCGT…AGATTTATGCAGCGGACTGCCTTTCTCCCAAAGTGATAAACCGGACAGTATCATGGACCGGTTTTCCCGGTAATCCGTATTTGCAAGGTTGGTTTCACT; site = the 11-nt target", "outline": "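A vector carrying a T7-inducible recombinase and the last 73 bp of the bridge RNA received, by Gibson cloning, oligos encoding a promoter, target, barcode and the first 104 bridge RNA bases under J23119. The pooled constructs entered E. coli together with a donor plasmid by electroporation. Selection used chloramphenicol/ampicillin/kanamycin with 0.1 mM IPTG, with chloramphenicol/ampicillin LB agar as the control, each in two replicates. Recombination efficiency is the averaged, control-corrected counts-per-million of barcodes at recombinant junctions, reported as log10(CPM+1).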", "values": [{"sequence": "AGTCTCCCTTGGGTTCTAACCTGTTGCCT (site AGCCTCCCTAG)", "recombinant barcode read abundance (log10)": 0.0404}, {"sequence": "AGTCTCCCTTGGGTTCTAACCTGTTGCCT (site AGGCTCCCTAG)", "recombinant barcode read abundance (log10)": 0.0232}, {"sequence": "AGTCTCCCTTGGGTTCTAACCTGTTGCCT (site AGTCTCCCTAG)", "recombinant barcode read abundance (log10)": 1.56}, {"sequence": "AGTCTCTCTTGGGTTCTAACCTGTTGCCG (site AGTCTCTCTCG)", "recombinant barcode read abundance (log10)": 0.357}, {"sequence": "AGTCTCTCTTGGGTTCTAACCTGTTGCCG (site AGTCTCTCTTA)", "recombinant barcode read abundance (log10)": 0.0569}, {"sequence": "AGTGCGGCTTGGGTTCTAACCTGTTGCCT (site AGTGCGGCTAG)", "recombinant barcode read abundance (log10)": 0.685}, {"sequence": "AGTGCGGCTTGGGTTCTAACCTGTTGCCT (site CGTGCGGCTAG)", "recombinant barcode read abundance (log10)": 0.231}, {"sequence": "AGTGCGGCTTGGGTTCTAACCTGTTGCCT (site GGTGCGGCTAG)", "recombinant barcode read abundance (log10)": 0.0363}, {"sequence": "AGTGCGGCTTGGGTTCTAACCTGTTGCCT (site TGTGCGGCTAG)", "recombinant barcode read abundance (log10)": 0.143}, {"sequence": "AGTTAACCTTGGGTTCTAACCTGTTGCGG (site ACTTGACCTCC)", "recombinant barcode read abundance (log10)": 0.0373}, {"sequence": "AGTTAACCTTGGGTTCTAACCTGTTGCGG (site AGTTAACCTCC)", "recombinant barcode read abundance (log10)": 1.97}, {"sequence": "AGTTACACTTGGGTTCTAACCTGTTGCCT (site AGTTACACTAG)", "recombinant barcode read abundance (log10)": 0.637}, {"sequence": "AGTTACACTTGGGTTCTAACCTGTTGCCT (site AGTTCCACTAG)", "recombinant barcode read abundance (log10)": 0.0139}, {"sequence": "AGTTACACTTGGGTTCTAACCTGTTGCCT (site AGTTGCACTAG)", "recombinant barcode read abundance (log10)": 0.0991}, {"sequence": "AGTTACACTTGGGTTCTAACCTGTTGCCT (site AGTTTCACTAG)", "recombinant barcode read abundance (log10)": 0.0317}, {"sequence": "AGTTAGCCTTGGGTTCTAACCTGTTGCCT (site AGTAAGCCTAG)", "recombinant barcode read abundance (log10)": 0.107}, {"sequence": "AGTTAGCCTTGGGTTCTAACCTGTTGCCT (site AGTCAGCCTAG)", "recombinant barcode read abundance (log10)": 0.161}, {"sequence": "AGTTAGCCTTGGGTTCTAACCTGTTGCCT (site AGTGAGCCTAG)", "recombinant barcode read abundance (log10)": 0.114}, {"sequence": "AGTTAGCCTTGGGTTCTAACCTGTTGCCT (site AGTTAGCCTAG)", "recombinant barcode read abundance (log10)": 0.361}, {"sequence": "AGTTAGTCTTGGGTTCTAACCTGTTGCAG (site AGTTAGTCTCT)", "recombinant barcode read abundance (log10)": 1.48}, {"sequence": "AGTTAGTCTTGGGTTCTAACCTGTTGCAG (site GTACGCACTAG)", "recombinant barcode read abundance (log10)": 0.0583}, {"sequence": "AGTTCACCTTGGGTTCTAACCTGTTGCTA (site AGTTCACCTTA)", "recombinant barcode read abundance (log10)": 0.0738}, {"sequence": "AGTTCACCTTGGGTTCTAACCTGTTGCTA (site GAGGGCTCTCC)", "recombinant barcode read abundance (log10)": 0.314}, {"sequence": "AGTTCATCTTGGGTTCTAACCTGTTGCAT (site AGTTCATCTAT)", "recombinant barcode read abundance (log10)": 0.0989}, {"sequence": "AGTTCATCTTGGGTTCTAACCTGTTGCAT (site CTAGATGCTTC)", "recombinant barcode read abundance (log10)": 0}, {"sequence": "AGTTGCCCTTGGGTTCTAACCTGTTGCCT (site AATTGCCCTAG)", "recombinant barcode read abundance (log10)": 0.738}, {"sequence": "AGTTGCCCTTGGGTTCTAACCTGTTGCCT (site ACTTGCCCTAG)", "recombinant barcode read abundance (log10)": 0.068}, {"sequence": "AGTTGCCCTTGGGTTCTAACCTGTTGCCT (site AGTTGCCCTAG)", "recombinant barcode read abundance (log10)": 0.457}, {"sequence": "AGTTGCCCTTGGGTTCTAACCTGTTGCCT (site ATTTGCCCTAG)", "recombinant barcode read abundance (log10)": 0.0653}, {"sequence": "AGTTGGCCTTGGGTTCTAACCTGTTGCGA (site AGTTGGCCTTC)", "recombinant barcode read abundance (log10)": 0.45}, {"sequence": "AGTTGGCCTTGGGTTCTAACCTGTTGCGA (site CCACCTTCTAG)", "recombinant barcode read abundance (log10)": 0.123}, {"sequence": "AGTTGTCCTTGGGTTCTAACCTGTTGCCT (site AGTTGTCCTAA)", "recombinant barcode read abundance (log10)": 0.174}, {"sequence": "AGTTGTCCTTGGGTTCTAACCTGTTGCCT (site AGTTGTCCTAC)", "recombinant barcode read abundance (log10)": 0.0671}, {"sequence": "AGTTGTCCTTGGGTTCTAACCTGTTGCCT (site AGTTGTCCTAG)", "recombinant barcode read abundance (log10)": 0.132}, {"sequence": "AGTTGTCCTTGGGTTCTAACCTGTTGCCT (site AGTTGTCCTAT)", "recombinant barcode read abundance (log10)": 0.296}, {"sequence": "ATAACTACTTGGGTTCTAACCTGTTGCTT (site ATAACTACTAA)", "recombinant barcode read abundance (log10)": 0.216}, {"sequence": "ATAACTACTTGGGTTCTAACCTGTTGCTT (site TACCTACCTTC)", "recombinant barcode read abundance (log10)": 0.0357}, {"sequence": "ATAAGCCCTTGGGTTCTAACCTGTTGCCT (site AAAAGCCCTAG)", "recombinant barcode read abundance (log10)": 0.176}, {"sequence": "ATAAGCCCTTGGGTTCTAACCTGTTGCCT (site ACAAGCCCTAG)", "recombinant barcode read abundance (log10)": 0.212}, {"sequence": "ATAAGCCCTTGGGTTCTAACCTGTTGCCT (site AGAAGCCCTAG)", "recombinant barcode read abundance (log10)": 0.166}, {"sequence": "ATAAGCCCTTGGGTTCTAACCTGTTGCCT (site ATAAGCCCTAG)", "recombinant barcode read abundance (log10)": 1.36}, {"sequence": "ATAAGCTCTTGGGTTCTAACCTGTTGCCT (site ATAAGCTCTAG)", "recombinant barcode read abundance (log10)": 2.3}, {"sequence": "ATAAGCTCTTGGGTTCTAACCTGTTGCCT (site CTAAGCTCTAG)", "recombinant barcode read abundance (log10)": 0.289}, {"sequence": "ATAAGCTCTTGGGTTCTAACCTGTTGCCT (site GTAAGCTCTAG)", "recombinant barcode read abundance (log10)": 0.119}, {"sequence": "ATAAGCTCTTGGGTTCTAACCTGTTGCCT (site TTAAGCTCTAG)", "recombinant barcode read abundance (log10)": 0.766}, {"sequence": "ATAAGGACTTGGGTTCTAACCTGTTGCTA (site ATAAGGACTTA)", "recombinant barcode read abundance (log10)": 2.01}, {"sequence": "ATAAGGACTTGGGTTCTAACCTGTTGCTA (site ATACGGACTTA)", "recombinant barcode read abundance (log10)": 0.111}, {"sequence": "ATAAGGACTTGGGTTCTAACCTGTTGCTA (site ATAGGGACTTA)", "recombinant barcode read abundance (log10)": 1.26}, {"sequence": "ATAAGGACTTGGGTTCTAACCTGTTGCTA (site ATATGGACTTA)", "recombinant barcode read abundance (log10)": 0.52}, {"sequence": "ATAAGGGCTTGGGTTCTAACCTGTTGCCT (site ATAAATGCTAG)", "recombinant barcode read abundance (log10)": 0.183}, {"sequence": "ATAAGGGCTTGGGTTCTAACCTGTTGCCT (site ATAAGGGCTAG)", "recombinant barcode read abundance (log10)": 0.652}, {"sequence": "ATAAGTCCTTGGGTTCTAACCTGTTGCCA (site ATAAGTCCTTG)", "recombinant barcode read abundance (log10)": 0.582}, {"sequence": "ATAAGTCCTTGGGTTCTAACCTGTTGCCA (site GTAAGTACTTG)", "recombinant barcode read abundance (log10)": 0.0629}, {"sequence": "ATACGTACTTGGGTTCTAACCTGTTGCCT (site ATACGTACTAG)", "recombinant barcode read abundance (log10)": 1.74}, {"sequence": "ATACGTACTTGGGTTCTAACCTGTTGCCT (site CTACGTACTAG)", "recombinant barcode read abundance (log10)": 0.0799}, {"sequence": "ATACGTACTTGGGTTCTAACCTGTTGCCT (site GTACGTACTAG)", "recombinant barcode read abundance (log10)": 0.067}, {"sequence": "ATACGTACTTGGGTTCTAACCTGTTGCCT (site TTACGTACTAG)", "recombinant barcode read abundance (log10)": 0.0363}, {"sequence": "ATACTACCTTGGGTTCTAACCTGTTGCGG (site ATACTACCTCC)", "recombinant barcode read abundance (log10)": 1.4}, {"sequence": "ATACTACCTTGGGTTCTAACCTGTTGCGG (site ATCCCACCTCC)", "recombinant barcode read abundance (log10)": 0.119}, {"sequence": "ATATACTCTTGGGTTCTAACCTGTTGCCG (site ATATACTCTCG)", "recombinant barcode read abundance (log10)": 2.38}, {"sequence": "ATATACTCTTGGGTTCTAACCTGTTGCCG (site ATCTACTCTAG)", "recombinant barcode read abundance (log10)": 0.0335}, {"sequence": "ATATGAGCTTGGGTTCTAACCTGTTGCCG (site ATATGAGCTCG)", "recombinant barcode read abundance (log10)": 0.307}, {"sequence": "ATATGAGCTTGGGTTCTAACCTGTTGCCG (site ATATGCGCTCG)", "recombinant barcode read abundance (log10)": 0.175}, {"sequence": "ATATGAGCTTGGGTTCTAACCTGTTGCCG (site ATATGGGCTCG)", "recombinant barcode read abundance (log10)": 0.0468}, {"sequence": "ATATGAGCTTGGGTTCTAACCTGTTGCCG (site ATATGTGCTCG)", "recombinant barcode read abundance (log10)": 0.167}, {"sequence": "ATATGAGCTTGGGTTCTAACCTGTTGCTT (site ACATGACCTAA)", "recombinant barcode read abundance (log10)": 0.177}, {"sequence": "ATATGAGCTTGGGTTCTAACCTGTTGCTT (site ATATGAGCTAA)", "recombinant barcode read abundance (log10)": 0.283}, {"sequence": "ATCAACCCTTGGGTTCTAACCTGTTGCCA (site ATCAACCCTTG)", "recombinant barcode read abundance (log10)": 1.04}, {"sequence": "ATCAACCCTTGGGTTCTAACCTGTTGCCA (site TCGTCTACTGA)", "recombinant barcode read abundance (log10)": 0.375}, {"sequence": "ATCACAGCTTGGGTTCTAACCTGTTGCCT (site ATCAAAGCTAG)", "recombinant barcode read abundance (log10)": 0.136}, {"sequence": "ATCACAGCTTGGGTTCTAACCTGTTGCCT (site ATCACAGCTAG)", "recombinant barcode read abundance (log10)": 0.736}, {"sequence": "ATCACGCCTTGGGTTCTAACCTGTTGCCT (site ACCACGCCTAG)", "recombinant barcode read abundance (log10)": 0.128}, {"sequence": "ATCACGCCTTGGGTTCTAACCTGTTGCCT (site ATCACGCCTAG)", "recombinant barcode read abundance (log10)": 0.544}, {"sequence": "ATCAGGTCTTGGGTTCTAACCTGTTGCCT (site AACAGGTCTAG)", "recombinant barcode read abundance (log10)": 0.299}, {"sequence": "ATCAGGTCTTGGGTTCTAACCTGTTGCCT (site ACCAGGTCTAG)", "recombinant barcode read abundance (log10)": 0.18}, {"sequence": "ATCAGGTCTTGGGTTCTAACCTGTTGCCT (site AGCAGGTCTAG)", "recombinant barcode read abundance (log10)": 0.107}, {"sequence": "ATCAGGTCTTGGGTTCTAACCTGTTGCCT (site ATCAGGTCTAG)", "recombinant barcode read abundance (log10)": 0.431}]}]}
